Experimental data from ChEMBL document CHEMBL2331518, “Rapid microwave-enhanced synthesis of C5-alkynyl pyranonucleosides as novel cytotoxic antitumor agents” (Bioorg Med Chem Lett, 2013).
Activity calls are given as the source filed them. No cut-off for these calls is given here.

What follows are compounds tested on Human immunodeficiency virus 2 (assay: Antiviral activity against HIV2 ROD infected in human CEM cells assessed as reduction of virus-induced cytopathicity after 4 to 5 days). Settings: ISOLATE ROD, CCRF-CEM.
Type: functional, organism-based

SMILES | Activity
C[n+]1ccccc1C#Cc1cn([C@@H]2O[C@H](CO)[C@@H](O)[C@H](O)[C@H]2O)c(=O)[nH]c1=O | inactive
O=c1[nH]c(=O)n([C@@H]2O[C@H](CO)[C@@H](O)[C@H](O)[C@H]2O)cc1C#Cc1cccnc1 | inactive
CCCCCc1cc2cn([C@@H]3O[C@H](CO)[C@@H](O)[C@H](O)[C@H]3O)c(=O)nc2o1 | inactive

These compounds were tested on Human immunodeficiency virus 1 (assay: Antiviral activity against HIV1 3B infected in human CEM cells assessed as reduction of virus-induced cytopathicity after 4 to 5 days). Settings: CCRF-CEM.
Type: functional, organism-based

SMILES | Activity
C[n+]1ccccc1C#Cc1cn([C@@H]2O[C@H](CO)[C@@H](O)[C@H](O)[C@H]2O)c(=O)[nH]c1=O | inactive
O=c1[nH]c(=O)n([C@@H]2O[C@H](CO)[C@@H](O)[C@H](O)[C@H]2O)cc1C#Cc1cccnc1 | inactive
CCCCCc1cc2cn([C@@H]3O[C@H](CO)[C@@H](O)[C@H](O)[C@H]3O)c(=O)nc2o1 | inactive

The compounds below were run on Punta Toro virus (assay: Antiviral activity against Punta Toro virus by cell based assay). Settings: not given.
Type: functional, organism-based

SMILES | Activity
C[n+]1ccccc1C#Cc1cn([C@@H]2O[C@H](CO)[C@@H](O)[C@H](O)[C@H]2O)c(=O)[nH]c1=O | inactive
O=c1[nH]c(=O)n([C@@H]2O[C@H](CO)[C@@H](O)[C@H](O)[C@H]2O)cc1C#Cc1cccnc1 | inactive
CCCCCc1cc2cn([C@@H]3O[C@H](CO)[C@@H](O)[C@H](O)[C@H]3O)c(=O)nc2o1 | inactive

Each compound was assayed on Mammalian orthoreovirus 1 (assay: Antiviral activity against Reovirus-1 by cell based assay). Settings: not given.
Type: functional, organism-based

SMILES | Activity
C[n+]1ccccc1C#Cc1cn([C@@H]2O[C@H](CO)[C@@H](O)[C@H](O)[C@H]2O)c(=O)[nH]c1=O | inactive
O=c1[nH]c(=O)n([C@@H]2O[C@H](CO)[C@@H](O)[C@H](O)[C@H]2O)cc1C#Cc1cccnc1 | inactive
CCCCCc1cc2cn([C@@H]3O[C@H](CO)[C@@H](O)[C@H](O)[C@H]3O)c(=O)nc2o1 | inactive

What follows are compounds tested on Influenza B virus (assay: Antiviral activity against Influenza B virus by cell based assay). Settings: not given.
Type: functional, organism-based

SMILES | Activity
C[n+]1ccccc1C#Cc1cn([C@@H]2O[C@H](CO)[C@@H](O)[C@H](O)[C@H]2O)c(=O)[nH]c1=O | inactive
O=c1[nH]c(=O)n([C@@H]2O[C@H](CO)[C@@H](O)[C@H](O)[C@H]2O)cc1C#Cc1cccnc1 | inactive
CCCCCc1cc2cn([C@@H]3O[C@H](CO)[C@@H](O)[C@H](O)[C@H]3O)c(=O)nc2o1 | inactive

What follows are compounds tested on Influenza A virus (assay: Antiviral activity against Influenza A virus H3N2 by cell based assay). Settings: not given.
Type: functional, organism-based

SMILES | Activity
C[n+]1ccccc1C#Cc1cn([C@@H]2O[C@H](CO)[C@@H](O)[C@H](O)[C@H]2O)c(=O)[nH]c1=O | inactive
O=c1[nH]c(=O)n([C@@H]2O[C@H](CO)[C@@H](O)[C@H](O)[C@H]2O)cc1C#Cc1cccnc1 | inactive
CCCCCc1cc2cn([C@@H]3O[C@H](CO)[C@@H](O)[C@H](O)[C@H]3O)c(=O)nc2o1 | inactive

These compounds were tested on Sindbis virus (assay: Antiviral activity against Sindbis virus by cell based assay). Settings: not given.
Type: functional, organism-based

SMILES | Activity
C[n+]1ccccc1C#Cc1cn([C@@H]2O[C@H](CO)[C@@H](O)[C@H](O)[C@H]2O)c(=O)[nH]c1=O | inactive
O=c1[nH]c(=O)n([C@@H]2O[C@H](CO)[C@@H](O)[C@H](O)[C@H]2O)cc1C#Cc1cccnc1 | inactive
CCCCCc1cc2cn([C@@H]3O[C@H](CO)[C@@H](O)[C@H](O)[C@H]3O)c(=O)nc2o1 | inactive

The compounds below were run on Influenza A virus (assay: Antiviral activity against Influenza A virus H1N1 by cell based assay). Settings: not given.
Type: functional, organism-based

SMILES | Activity
C[n+]1ccccc1C#Cc1cn([C@@H]2O[C@H](CO)[C@@H](O)[C@H](O)[C@H]2O)c(=O)[nH]c1=O | inactive
O=c1[nH]c(=O)n([C@@H]2O[C@H](CO)[C@@H](O)[C@H](O)[C@H]2O)cc1C#Cc1cccnc1 | inactive
CCCCCc1cc2cn([C@@H]3O[C@H](CO)[C@@H](O)[C@H](O)[C@H]3O)c(=O)nc2o1 | inactive

What follows are compounds tested on Human respirovirus 3 (assay: Antiviral activity against Parainfluenza-3 virus by cell based assay). Settings: not given.
Type: functional, organism-based

SMILES | Activity
C[n+]1ccccc1C#Cc1cn([C@@H]2O[C@H](CO)[C@@H](O)[C@H](O)[C@H]2O)c(=O)[nH]c1=O | inactive
O=c1[nH]c(=O)n([C@@H]2O[C@H](CO)[C@@H](O)[C@H](O)[C@H]2O)cc1C#Cc1cccnc1 | inactive
CCCCCc1cc2cn([C@@H]3O[C@H](CO)[C@@H](O)[C@H](O)[C@H]3O)c(=O)nc2o1 | inactive

These compounds were tested on Coxsackievirus B4 (assay: Antiviral activity against Coxsackie virus B4 by cell based assay). Settings: not given.
Type: functional, organism-based

SMILES | Activity
C[n+]1ccccc1C#Cc1cn([C@@H]2O[C@H](CO)[C@@H](O)[C@H](O)[C@H]2O)c(=O)[nH]c1=O | inactive
O=c1[nH]c(=O)n([C@@H]2O[C@H](CO)[C@@H](O)[C@H](O)[C@H]2O)cc1C#Cc1cccnc1 | inactive
CCCCCc1cc2cn([C@@H]3O[C@H](CO)[C@@H](O)[C@H](O)[C@H]3O)c(=O)nc2o1 | inactive

Each compound was assayed on Vesicular stomatitis virus (assay: Antiviral activity against Vesicular stomatitis virus by cell based assay). Settings: not given.
Type: functional, organism-based

SMILES | Activity
C[n+]1ccccc1C#Cc1cn([C@@H]2O[C@H](CO)[C@@H](O)[C@H](O)[C@H]2O)c(=O)[nH]c1=O | inactive
O=c1[nH]c(=O)n([C@@H]2O[C@H](CO)[C@@H](O)[C@H](O)[C@H]2O)cc1C#Cc1cccnc1 | inactive
CCCCCc1cc2cn([C@@H]3O[C@H](CO)[C@@H](O)[C@H](O)[C@H]3O)c(=O)nc2o1 | inactive

The compounds below were run on Respiratory syncytial virus (assay: Antiviral activity against Respiratory syncytial virus Long by cell based assay). Settings: not given.
Type: functional, organism-based

SMILES | Activity
C[n+]1ccccc1C#Cc1cn([C@@H]2O[C@H](CO)[C@@H](O)[C@H](O)[C@H]2O)c(=O)[nH]c1=O | inactive
O=c1[nH]c(=O)n([C@@H]2O[C@H](CO)[C@@H](O)[C@H](O)[C@H]2O)cc1C#Cc1cccnc1 | inactive
CCCCCc1cc2cn([C@@H]3O[C@H](CO)[C@@H](O)[C@H](O)[C@H]3O)c(=O)nc2o1 | inactive

These compounds were tested on Vaccinia virus (assay: Antiviral activity against Vaccinia virus Lederle by cell based assay). Settings: Orthopoxvirus vaccinia.
Type: functional, organism-based

SMILES | Activity
C[n+]1ccccc1C#Cc1cn([C@@H]2O[C@H](CO)[C@@H](O)[C@H](O)[C@H]2O)c(=O)[nH]c1=O | inactive
O=c1[nH]c(=O)n([C@@H]2O[C@H](CO)[C@@H](O)[C@H](O)[C@H]2O)cc1C#Cc1cccnc1 | inactive
CCCCCc1cc2cn([C@@H]3O[C@H](CO)[C@@H](O)[C@H](O)[C@H]3O)c(=O)nc2o1 | inactive

Each compound was assayed on Human alphaherpesvirus 2 (assay: Antiviral activity against HSV-2 G by cell based assay). Settings: strain G.
Type: functional, organism-based

SMILES | Activity
C[n+]1ccccc1C#Cc1cn([C@@H]2O[C@H](CO)[C@@H](O)[C@H](O)[C@H]2O)c(=O)[nH]c1=O | inactive
O=c1[nH]c(=O)n([C@@H]2O[C@H](CO)[C@@H](O)[C@H](O)[C@H]2O)cc1C#Cc1cccnc1 | inactive
CCCCCc1cc2cn([C@@H]3O[C@H](CO)[C@@H](O)[C@H](O)[C@H]3O)c(=O)nc2o1 | inactive

These compounds were tested on Human alphaherpesvirus 1 (assay: Antiviral activity against kinase-deficient acyclovir-resistant HSV-1 KOS by cell based assay). Settings: not given.
Type: functional, organism-based

SMILES | Activity
C[n+]1ccccc1C#Cc1cn([C@@H]2O[C@H](CO)[C@@H](O)[C@H](O)[C@H]2O)c(=O)[nH]c1=O | inactive
O=c1[nH]c(=O)n([C@@H]2O[C@H](CO)[C@@H](O)[C@H](O)[C@H]2O)cc1C#Cc1cccnc1 | inactive
CCCCCc1cc2cn([C@@H]3O[C@H](CO)[C@@H](O)[C@H](O)[C@H]3O)c(=O)nc2o1 | inactive

What follows are compounds tested on Human alphaherpesvirus 2 (assay: Antiviral activity against HSV-2 Lyons by cell based assay). Settings: not given.
Type: functional, organism-based

SMILES | Activity
C[n+]1ccccc1C#Cc1cn([C@@H]2O[C@H](CO)[C@@H](O)[C@H](O)[C@H]2O)c(=O)[nH]c1=O | inactive
O=c1[nH]c(=O)n([C@@H]2O[C@H](CO)[C@@H](O)[C@H](O)[C@H]2O)cc1C#Cc1cccnc1 | inactive
CCCCCc1cc2cn([C@@H]3O[C@H](CO)[C@@H](O)[C@H](O)[C@H]3O)c(=O)nc2o1 | inactive

These compounds were tested on Human alphaherpesvirus 1 (assay: Antiviral activity against HSV-1 KOS by cell based assay). Settings: not given.
Type: functional, organism-based

SMILES | Activity
C[n+]1ccccc1C#Cc1cn([C@@H]2O[C@H](CO)[C@@H](O)[C@H](O)[C@H]2O)c(=O)[nH]c1=O | inactive
O=c1[nH]c(=O)n([C@@H]2O[C@H](CO)[C@@H](O)[C@H](O)[C@H]2O)cc1C#Cc1cccnc1 | inactive
CCCCCc1cc2cn([C@@H]3O[C@H](CO)[C@@H](O)[C@H](O)[C@H]3O)c(=O)nc2o1 | inactive

These compounds were tested on HeLa (assay: Cytotoxicity against human HeLa cells after 72 hrs). Settings: not given.
Type: functional, cell-based

SMILES | IC50 [µM]
C[n+]1ccccc1C#Cc1cn([C@@H]2O[C@H](CO)[C@@H](O)[C@H](O)[C@H]2O)c(=O)[nH]c1=O | 244
O=c1[nH]c(=O)n([C@@H]2O[C@H](CO)[C@@H](O)[C@H](O)[C@H]2O)cc1C#Cc1cccnc1 | > 250
CCCCCc1cc2cn([C@@H]3O[C@H](CO)[C@@H](O)[C@H](O)[C@H]3O)c(=O)nc2o1 | > 250

The compounds below were run on L1210 (assay: Cytotoxicity against mouse L1210 cells after 48 hrs). Settings: L1210, 48 h.
Type: functional, cell-based

SMILES | IC50 [µM]
C[n+]1ccccc1C#Cc1cn([C@@H]2O[C@H](CO)[C@@H](O)[C@H](O)[C@H]2O)c(=O)[nH]c1=O | 152
O=c1[nH]c(=O)n([C@@H]2O[C@H](CO)[C@@H](O)[C@H](O)[C@H]2O)cc1C#Cc1cccnc1 | > 250
CCCCCc1cc2cn([C@@H]3O[C@H](CO)[C@@H](O)[C@H](O)[C@H]3O)c(=O)nc2o1 | ≥ 250

These compounds were tested on CCRF-CEM (assay: Cytotoxicity against human CEM cells after 72 hrs). Settings: not given.
Type: functional, cell-based

SMILES | IC50 [µM]
C[n+]1ccccc1C#Cc1cn([C@@H]2O[C@H](CO)[C@@H](O)[C@H](O)[C@H]2O)c(=O)[nH]c1=O | > 250
O=c1[nH]c(=O)n([C@@H]2O[C@H](CO)[C@@H](O)[C@H](O)[C@H]2O)cc1C#Cc1cccnc1 | > 250
CCCCCc1cc2cn([C@@H]3O[C@H](CO)[C@@H](O)[C@H](O)[C@H]3O)c(=O)nc2o1 | > 250
